Where only a bound is given, the exact number is not on record here.

The target of assay [1] is T1, c-Met/cFms chimeric receptor in c-Met/cFms/NIH3T3 cells (Homo sapiens, UniProt P08581).
T1 construct: The transmembrane/cytoplasmic domain fragment of c-Met (nucleotides 933 to 1390); expressed in transfected cells; the other entry of the earlier key: CSF1R (P07333, Macrophage colony-stimulating factor 1 receptor)
Kind of assay: Cell-based assay for c-Met autophosphorylation (ELISA). As to conditions: compounds 1 h at 37° C., M-CSF (600 ng/ml) stimulation 10 min. From the text: To generate a chimeric cDNA clone of c-Met with cFms, the extracellular domain of colony stimulating factor 1 receptor (CSF1R encoded by cFms gene) was fused with the transmembrane and cytoplasmic domain of c-Met. Reverse-transcribed RNA from human placenta was used as template to clone c-Met. The transmembrane/cytoplasmic domain fragment of c-Met (nucleotides 933 to 1390) containing a NotI site at both 5′- and 3′-end was generated by polymerase chain reaction (PCR) using following two oligonucleotides;
The resulting c-Met cDNA was cloned into pCR2.1-TOPO vector (c-Met/pCR2.1-TOPO). The extracellular domain fragment of cFms (nucleotides 1 to 512) containing BamHI site at 5′-end and NotI site at 3′-end was generated from human placenta cDNA by PCR using two oligonucleotides;
The resulting cFms cDNA was cloned into pcDNA3.1 vector (Invitrogen) using the BamHI and NotI sites (cFms/pcDNA3.1). To generate complete chimeric construct, the c-Met fragment (transmembrane and cytoplasmic domain) was digested with NotI sites (in c-Met/pCR2.1-TOPO vector) and then subcloned into cFms/pcDNA3.1 vector by NotI site (c-Met/cFms/pcDNA3.1).
NIH3T3 cells were grown in DMEM supplemented with 10% fetal bovine serum. NIH3T3 cells were transfected with c-Met/cFms/pcDNA3.1 vector alone using the calcium phosphate method according to the manufacturer's instructions. Three days after transfection, cells were selected with G418 (0.4 mgml^−1) for 14 days and the expression of c-Met chimeric receptor in the G418-resistant colonies of NIH3T3 (c-Met/cFms/NIH3T3) cells was analyzed by immunoblot. Autophosphorylation of c-Met induced by the stimulation with M-SCF, the ligand for CSF1R, was analyzed by immunoprecipitation and immunoblot, and prominent stable transfectant was selected for c-Met autophosphorylation assay. […]
c-Met/cFms/NIH3T3 cells were plated at 1×10^5 cells/well in collagen-coated 96-well microtitre plates and grown 24 h under standard culture conditions, followed by serum starvation for 1 h. The cells were incubated with compounds for 1 h at 37° C. and followed by M-CSF (600 ngml^−1) stimulation for 10 min at 37° C. The media was removed and the cells were lysed with 120 ul/well of lysis buffer (20 mM Tris-HCl pH8.0, 137 mM NaCl, 2 mM EDTA, 10% glycerol, 1% Triton X-100, 1 mM Na3VO4 and Protease Inhibitor Cocktail (Complete mini EDTA-free, Roche)). Then 100 ul/well of lysate was transferred to the antibody-coated (50 ng/well goat anti-cFms antibody in PBS) ELISA plate and incubated overnight at 4° C. Plates were washed five times with PBST (PBS containing 0.05% Tween-20). Primary antibody (biotin-conjugated anti-phosphotyrosine monoclonal antibody, PIERCE) was diluted 1:10,000 in PBST containing 1% BSA, added (100 ul/well) and incubated for 2 h at room temperature. After washing the plates five times with washing buffer, 100 ul/well of HRP-conjugated streptavidin (PIERCE) in PBST containing 1% BSA was added and incubated for 30 min at room temperature. After washing five times with PBST, 100 ul/well of SuperSignal ELISA Femto Substrate (PIERCE) was added and incubated for almost 1 min at room temperature. Chemiluminescence was measured using Wallac 1420 multilabel counter.
The IC50 was determined by using XLfit software (IDBS) with four-parameters, sigmoidal dose-response equation.
Background: An ELISA detects its analyte on a solid surface through an enzyme-linked reagent.

Assay [2] deals with T2, human Met Kinase (His6-GST fusion, aa 956-1390) (Homo sapiens, UniProt P08581).
T2 construct: His6 (N); GST (Glutathione-S-Transferase) (N); made in house; host or cells: baculovirus expression system in Sf9 cells
T2 sequence (P08581 956-1390): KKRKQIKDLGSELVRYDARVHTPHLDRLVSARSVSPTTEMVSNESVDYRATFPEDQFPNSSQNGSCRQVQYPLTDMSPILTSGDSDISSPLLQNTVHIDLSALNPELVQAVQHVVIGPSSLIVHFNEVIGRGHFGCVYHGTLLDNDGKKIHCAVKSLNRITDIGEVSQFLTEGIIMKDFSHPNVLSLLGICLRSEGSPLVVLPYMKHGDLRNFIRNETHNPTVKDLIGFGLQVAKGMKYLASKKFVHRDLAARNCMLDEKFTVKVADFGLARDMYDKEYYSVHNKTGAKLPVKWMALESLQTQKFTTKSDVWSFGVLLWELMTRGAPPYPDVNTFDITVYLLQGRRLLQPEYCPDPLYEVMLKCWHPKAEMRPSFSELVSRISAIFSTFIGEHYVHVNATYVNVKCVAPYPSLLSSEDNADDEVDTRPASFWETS
Kind of assay: In vitro screen: kinase assay of purified Met kinase. It is filed as biochemical. As to conditions: purified Met 1 nM, 10 μM ATP, 1 μM peptide substrate, 1 hour at room temperature; read-out: pIC50 values at the c-Met receptor (in vitro screen results) (converted). How it is done: The peptide substrate, Biotin-aminohexyl-EEEEYFELVAKKKK-amide was purchased from SynPep Solid sample is dissolved at approximately 2.5 mM in water (concentration determined by amino acid analysis) and aliquots stored at −20° C.
Met Kinase: A fusion protein consisting of His6-tagged Glutathione-S-Transferase (GST) and amino acid residues 956-1390 of human Met Kinase (aa 956-1390 of Entrez Protein Accession # EAL24359.1 (met proto-oncogene (hepatocyte growth factor receptor) [Homo sapiens])) from “www.ncbi.nlm.nih.gov/entrez/”) is purified from baculovirus expression system in Sf9 cells using Ni chelate column, GSH column, followed by size exclusion chromatography. Purity greater than 90%, estimated by SDS-PAGE, is achieved. Samples in 25 mM HEPES pH 7.5, 100 mM NaCl, 0.1 mM EDTA are stored at −80° C. until use.
Assays are performed in 96 well (Costar, Catalog No. 3789) or 384 well plates (Costar, Catalog No. 3705). Assay conditions for the peptide phosphorylation reaction (in 10, 20, 25, or 40 μl volume) mix are 100 mM Hepes buffer, pH 7.4; 0.1 mgml^−1 BSA; 5 mM MgCl2; 1 mM DTT; 10 μM ATP; purified Met (1 nM final); and 1 μM peptide substrate. Compounds, titrated in DMSO, are evaluated at concentrations ranging from 50 μM to 0.2 nM. […] Reactions are incubated for 1 hour at room temperature and are stopped by addition of detection reagents containing, at final detection volume, 12.5 mM EDTA; 100 mM Hepes; 0.1 mg/ml BSA; 8 nM Streptavidin APC (Perkin Elmer catalog #CR130-150); 1 nM Europium-labelled anti-phosphotyrosine antibody (Perkin Elmer catalog #AD0067). Under the assay conditions defined above, the Km (apparent) for ATP is determined to be 40 μM.
The data for compound dose responses were plotted as % Inhibition, calculated with the data reduction formula 100*(1−[(U1−C2)/(C1−C2)]), versus concentration of compound, where U is the unknown value, C1 is the average control value obtained for DMSO, and C2 is the average control value obtained for 0.05M EDTA. Data were fitted to the curve described by: y=((Vmax*x)/(K+x)) where Vmax is the upper asymptote and K is the IC50. The results for each compound were recorded as pIC50 calculated as follows: pIC50=−Log 10(K).

T1 sequence (P08581 with tags, fused parts or gaps): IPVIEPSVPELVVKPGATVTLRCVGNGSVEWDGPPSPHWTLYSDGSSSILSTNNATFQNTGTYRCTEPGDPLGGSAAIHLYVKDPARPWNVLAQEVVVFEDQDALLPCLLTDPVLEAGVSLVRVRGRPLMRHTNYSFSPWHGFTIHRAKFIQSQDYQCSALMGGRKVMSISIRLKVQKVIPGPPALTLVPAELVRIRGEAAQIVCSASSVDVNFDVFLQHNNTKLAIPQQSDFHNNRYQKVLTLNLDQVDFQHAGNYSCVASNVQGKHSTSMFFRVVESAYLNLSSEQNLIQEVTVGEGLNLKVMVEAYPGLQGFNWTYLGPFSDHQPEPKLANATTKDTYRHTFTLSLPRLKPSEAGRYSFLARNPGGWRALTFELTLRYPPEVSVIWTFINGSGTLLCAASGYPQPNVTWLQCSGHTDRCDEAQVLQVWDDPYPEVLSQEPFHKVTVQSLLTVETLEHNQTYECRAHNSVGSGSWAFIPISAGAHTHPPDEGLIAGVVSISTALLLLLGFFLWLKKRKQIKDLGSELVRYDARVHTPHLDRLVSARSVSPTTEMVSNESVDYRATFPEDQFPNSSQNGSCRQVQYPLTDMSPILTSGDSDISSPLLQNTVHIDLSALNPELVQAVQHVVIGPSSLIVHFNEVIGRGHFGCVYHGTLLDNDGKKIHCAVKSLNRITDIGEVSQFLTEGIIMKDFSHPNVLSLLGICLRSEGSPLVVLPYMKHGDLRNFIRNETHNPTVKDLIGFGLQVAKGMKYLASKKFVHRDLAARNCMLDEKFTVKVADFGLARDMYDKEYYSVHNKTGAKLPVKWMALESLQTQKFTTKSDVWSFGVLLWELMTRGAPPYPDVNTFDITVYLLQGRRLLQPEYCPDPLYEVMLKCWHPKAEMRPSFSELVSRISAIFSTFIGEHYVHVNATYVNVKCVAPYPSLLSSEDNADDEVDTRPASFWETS

On to `O=C(Nc1ccccc1)C1(C(=O)Nc2ccc(Nc3ccnc4[nH]ccc34)cc2)CC1` [Example 16, N^1-Phenyl-N^1-[4-(1H-pyrrolo[2,3-b]pyridin-4-ylamino)phenyl]-1,1-cyclopropanedicarboxamide], for which the results for the IC50 in assay [1] and in assay [2] were 3160 to 31600 nM and 100 to 1000 nM, respectively.

On to `CN(C)Cc1cccc(NC(=O)c2cc3c(Oc4ccc(NC(=O)C5(C(=O)Nc6ccc(F)cc6)CC5)cc4)ccnc3[nH]2)c1` [Example 14, N^1-[4-({2-[({3-[(Dimethylamino)methyl]phenyl}amino)carbonyl]-1H-pyrrolo[2,3-b]pyridin-4-yl}oxy)phenyl]-N^1-(4-fluorophenyl)-1,1-cyclopropane dicarboxamide], for which the figures for the IC50 in assay [1] and in assay [2] were 1000 to 3160 nM and under 10 nM, respectively.

As to `CS(=O)(=O)CCNC(=O)c1cc2c(Oc3ccc(NC(=O)C4(C(=O)Nc5ccc(F)cc5)CC4)cc3)ccnc2[nH]1` [Example 1, N^1-(4-Fluorophenyl)-N^1-(4-{[2-({[2-(methylsulfonyl)ethyl]amino}carbonyl)-1H-pyrrolo[2,3-b]pyridin-4-yl]oxy}phenyl)-1,1-cyclopropane dicarboxamide], the IC50 in assay [2] is under 10 nM.

The values above are taken from patent US20100016307A1, “NOVEL COMPOUNDS” (priority 2006, published 2010).
